Tests used:
Assay type in all cases: cell-based, canine
[1] = system: W&Wlis cells; assay: DNA content analysis by flow cytometry, labeling with propidium iodide; design: unit not given here; conditions: Without GO
[2] = system: W&Wlis cells; assay: Analysis of the type of death by flow cytometry (annexin V-FITC/propidium iodide); design: Necrosis / Apoptosis: unit not given here; conditions: Without GO
Experimental: The annexin V-FITC and propidium iodide assay was performed in parallel by flow cytometry. The pattern of death of the system was analyzed when adding 5 mEU/ml of glucose oxidase and the combined therapy (5 mEU/ml of GO and 500 μg/ml of linamarin) at 48 hours, followed by the control of untreated cells and of the cells incubated with 500 μg/ml of linamarin at 96 hours. Furthermore, another group of cells was subjected to the same conditions except 10 mM of N-acetyl cysteine (NAC) were added. The cells treated with the combined therapy were subsequently studied at 48 hours in the absence and presence of 100 μM of Z-VAD-fmk, followed by the control of treatment of the cells with UV in the same conditions. Finally, the cells treated with the combined therapy were shown at 48 hours in the absence and presence of 300 μM of 1,5-isoquinolinediol (DIQ), observing that the pattern of death is not modified when PARP-1 is inhibited (FIG. 4).
10^5 W&Wlis cells were seeded in test tubes with a screw-on cap and flat side (Nunc). After 24 hours, different amounts of linamarin (50, 200 or 500 μg/ml) and glucose oxidase (5 mEU/ml) were added in the specified cases. In the appropriate assays, the medium was supplemented with N-acetyl cysteine (10 mM), 1,5-isoquinolinediol (300 μM) or Z-VAD-fmk (100 μM). […] They were centrifuged for 5 minutes at 1200 rpm and the cell precipitate was washed first with PBS and then with binding buffer (0.1 M Hepes/NaOH pH 7.4, 1.4 M NaCl and 25 mM CaCl2). The cells were again precipitated and resuspended in 100 μl of binding buffer supplemented with 5 μl of annexin V-FITC and 2.5 μg/ml of propidium iodide. The samples were incubated for 15 minutes in the dark. Data acquisition and analysis was carried out by means of a FACSCalibur flow cytometer (DB Biosciences) with the Cell Quest program.

[3] = system: W&Wlis cells; assay: Structural modifications of the mitochondrion (pDsRed2-mito, confocal microscopy); conditions: linamarin 500 μg/ml from 48 hours; glucose oxidase 5 mEU/ml; combination after 24 hours
Experimental: For the purpose of studying the mitochondrial dynamics occurring as a result of the oxidative stress caused by the activity of the claimed system, W&Wlis cells were stably transfected with the plasmid pdsRed2-mito (Clontech) containing the gene of the one red fluorescent protein carried by a transport signal peptide to the mitochondrion. This allowed viewing the mitochondria of cells treated with linamarin and glucose oxidase by fluorescence microscopy. […] This effect starts to be observed 48 hours after treatment with linamarin (FIG. 1B) and becomes more pronounced after 72 hours, a slight swelling of the fragments (FIG. 1C) being observed.
To study the structural modifications of the mitochondrion during therapy, the W&W and W&Wlis cells were transfected with the plasmid pDsRed2-mito (Clontech, BD Bioscience) containing the gene of a red fluorescent protein which is expressed exclusively in mitochondria. The transfection was performed similarly to the previous section and clones were selected by resistance to neomycin (0.75 and 1.5 mg/ml respectively). The cells from stable expression clones of the protein were seeded in multiwell plates on cover slips (2.5×10^4) and were treated with linamarin (50, 200 or 500 μg/ml) and glucose oxidase (5 mEU/ml). After the suitable incubation time for each experiment (24, 48 or 72 hours) elapsed, the cells were fixed with 4% paraformaldehyde. […]

[4] = 50 μg lin, 96 hours, NAC (10 mM)
[5] = 200 μg lin, 96 hours, NAC (10 mM)
[6] = 500 μg lin, 96 hours, NAC (10 mM)
[7] = Table 4, 50 μg lin, 72 hours, Z-VAD-fmk (100 μM)
[8] = Table 4, 50 μg lin, 72 hours, control (no Z-VAD-fmk)
[9] = Table 4, 200 μg lin, 72 hours, Z-VAD-fmk (100 μM)
[10] = Table 4, 200 μg lin, 72 hours, control (no Z-VAD-fmk)
[11] = Table 4, 500 μg lin, 72 hours, Z-VAD-fmk (100 μM)
[12] = Table 4, 500 μg lin, 72 hours, control (no Z-VAD-fmk)

CC(C)(C#N)O[C@@H]1O[C@H](CO)[C@@H](O)[C@H](O)[C@H]1O [lin, 2-hydroxy-isobutyronitrile-β-D-glucopyranoside]
DNA content by flow cytometry, labeling with propidium iodide ([1]; 50 μg lin, 48 hours): 1.95 | DNA content by flow cytometry, labeling with propidium iodide ([1]; 50 μg lin, 72 hours): 2.77 | DNA content by flow cytometry, labeling with propidium iodide ([1]; 200 μg lin, 48 hours): 1.89 | DNA content by flow cytometry, labeling with propidium iodide ([1]; 200 μg lin, 72 hours): 3.14 | DNA content by flow cytometry, labeling with propidium iodide ([1]; 500 μg lin, 48 hours): 3.21 | DNA content by flow cytometry, labeling with propidium iodide ([1]; 500 μg lin, 72 hours): 4.91 | Apoptosis ([2]; 50 μg lin, 48 h): 3.71 | Necrosis ([2]; 50 μg lin, 48 h): 2.96 | Apoptosis ([2]; 50 μg lin, 72 h): 3.74 | Necrosis ([2]; 50 μg lin, 72 h): 5.28 | Apoptosis ([2]; 50 μg lin, 96 h): 20.83 | Necrosis ([2]; 50 μg lin, 96 h): 11.33 | Apoptosis [2, 4]: 6.44 | Necrosis [2, 4]: 51.89 | Apoptosis ([2]; 200 μg lin, 48 h): 3.84 | Necrosis ([2]; 200 μg lin, 48 h): 5.68 | Apoptosis ([2]; 200 μg lin, 72 h): 4.62 | Necrosis ([2]; 200 μg lin, 72 h): 9.34 | Apoptosis ([2]; 200 μg lin, 96 h): 14.31 | Necrosis ([2]; 200 μg lin, 96 h): 45.15 | Apoptosis [2, 5]: 21.58 | Necrosis [2, 5]: 29.18 | Apoptosis ([2]; 500 μg lin, 48 h): 5.17 | Necrosis ([2]; 500 μg lin, 48 h): 5.54 | Apoptosis ([2]; 500 μg lin, 72 h): 6.25 | Necrosis ([2]; 500 μg lin, 72 h): 6.91 | Apoptosis ([2]; 500 μg lin, 96 h): 18.99 | Necrosis ([2]; 500 μg lin, 96 h): 24.98 | Apoptosis [2, 6]: 18.53 | Necrosis [2, 6]: 19.89 | Apoptosis [2, 7]: 3.48 | Necrosis [2, 7]: 15.01 | Apoptosis [2, 8]: 1.36 | Necrosis [2, 8]: 14.72 | Apoptosis [2, 9]: 2.56 | Necrosis [2, 9]: 13.07 | Apoptosis [2, 10]: 3.30 | Necrosis [2, 10]: 30.13 | Apoptosis [2, 11]: 6.08 | Necrosis [2, 11]: 13.24 | Apoptosis [2, 12]: 9.02 | Necrosis [2, 12]: 18.04 | mitochondrial pattern [3]: dotted pattern
